The results in this text go back to US20070149404A1, “Microbicidal compositions” (BASF AKTIENGESELLSCHAFT, priority 2003, published 2007).

Series [1] in a line: Solubility in water at room temperature.
In the next series the test system is algae. Kind of series: Efficacy against algal growth on painted plaster surface (BBA MOAT 33). Type of series: cell-based. The settings on record: 0.5% in paint. The protocol: (§1) Testing was performed according to the BS3900 G6 and BBA MOAT 33 methods for evaluation versus fungi and algae, respectively. The methods involve painting a substrate panel with the coating and leaching under running water for 72 hours. The substrates are incubated for 56 days after being inoculated with fungi or algae. Performance is judged by comparing with suitable control samples ie without biocide, a positive control and for fungi with substrate panels that have not been leached.
(§2) Performance rating on painted test substrates (Score of 0, 1 and 2 is considered as a pass) • 0=no growth • 1=trace of growth • 2=growth on 1-10% of test face • 3=growth on 10-30% of test face • 4=growth on 30-70% of test face
(§3) 5=growth on 70-100% of test face.

Series [2] deals with fungi. Kind of series: Efficacy against fungal growth on painted plaster surface (BS3900 G6). Type of series: cell-based. The settings on record: 0.5% in paint. The protocol: Testing was performed according to the BS3900 G6 and BBA MOAT 33 methods for evaluation versus fungi and algae, respectively. The methods involve painting a substrate panel with the coating and leaching under running water for 72 hours. […] Performance is judged by comparing with suitable control samples ie without biocide, a positive control and for fungi with substrate panels that have not been leached.
as §2, §3

The test system of series [3] is fungi. Kind of series: Efficacy against fungal growth on painted wooden surface (BS3900 G6). In kind it is cell-based. The following applies: 0.5% in paint. As for the experimental part: as §1, §2, §3
The subject of another series is Micrococcus luteus. The series is described as follows: Intrinsic activity, microtitre plate method, ML. In kind it is cell-based. As for the experimental part: (§4) The chemistries were tested for their activity against a range of organisms via a microtitre plate method. The test organisms were: • ML—Micrococcus luteus • SA—Staphylococcus aureus • EC—Escherichia coli • PA—Pseudomonas aeruginosa • CF—Citrobacter freundii • PM—Proteus mirabilis • CA—Candida albicans • SC—Saccharomyces cerevisiae • AN—Aspergillus niger • PF—Penicillium funiculosum • AA—Alternaria alternata
(§5) Using the following rating scale: • 0=no activity • 1=minimal inhibition • 2=inhibition • 3=clear inhibition • 4=clear inhibition biostatic, may be biocide activity • 5=biostatic, may be biocide activity
(§6) Readings of 4 and possibly 3 were considered to be valid for biocidal applications.

The next series concerns Staphylococcus aureus. The series is described as follows: Intrinsic activity, microtitre plate method, SA. Type of series: cell-based. As for the experimental part: as §4, §5, §6
In another series the test system is Escherichia coli. Kind of series: Intrinsic activity, microtitre plate method, EC. Type of series: cell-based. The protocol: as §4, §5, §6
The next series concerns Pseudomonas aeruginosa. The series is described as follows: Intrinsic activity, microtitre plate method, PA. In kind it is cell-based. The protocol:
as §4, §5, §6

The subject of another series is Citrobacter freundii. Kind of series: Intrinsic activity, microtitre plate method, CF. Type of series: cell-based. The protocol:
as §4, §5, §6

The subject of the next series is Proteus mirabilis. Kind of series: Intrinsic activity, microtitre plate method, PM. In kind it is cell-based. The protocol:
as §4, §5, §6

For a further series, the system named is Bacteria. Kind of series: Intrinsic activity, microtitre plate method, mean score over bacteria. The following applies: performance against organisms/no of organisms, 0 to <3 poor, >3 inhibition, >4 biostasis, biocidal activity. Type of series: cell-based, ML, SA, EC, PA, CF, PM. The protocol: as §4, §5, §6
A further series deals with Candida albicans. The series is described as follows: Intrinsic activity, microtitre plate method, CA. In kind it is cell-based. The protocol: as §4, §5, §6
The subject of a further series is Saccharomyces cerevisiae. The series is described as follows: Intrinsic activity, microtitre plate method, SC. Type of series: cell-based. As for the experimental part: as §4, §5, §6
The subject of another series is Aspergillus niger. Kind of series: Intrinsic activity, microtitre plate method, AN. In kind it is cell-based. The protocol: as §4, §5, §6
Another series has as its system Penicillium funiculosum. Kind of series: Intrinsic activity, microtitre plate method, PF. In kind it is cell-based. As for the experimental part:
as §4, §5, §6

The test system of another series is Alternaria alternata. The series is described as follows: Intrinsic activity, microtitre plate method, AA. Type of series: cell-based. The protocol: as §4, §5, §6
Series [4] concerns Fungi. The series is described as follows: Intrinsic activity, microtitre plate method, mean score over fungi. Type of series: cell-based, CA, SC, AN, PF, AA. The following applies: performance against organisms/no of organisms, 0 to <3 poor, >3 inhibition, >4 biostasis, biocidal activity. The protocol:
as §4, §5, §6

Consider Metiram, for which the “Aq. Solubility (ppm)” value in [1] was 2.7 ppm.

Consider `O=C(Nc1ccc(F)cc1)c1cccc(Oc2cccc(C(F)(F)F)c2)n1` [Picolinafen], for which the “MEAN ALGAL GROWTH RATING 28 days” value in the series with algae (painted plaster, leached 72 hours, 28 days after inoculation, mean of ratings 0-5) is recorded as 1.5. Besides, in the series with algae (painted plaster, leached 72 hours, 56 days after inoculation, mean of ratings 0-5), the “MEAN ALGAL GROWTH RATING 56 days” value worked out at 2.5. Moreover, in the series with algae (painted plaster, versus unpreserved paint, 56 days), the “% Improved after 56 days (algal growth)” value is 37.5%. Further, the “Improvement against algal growth on the plaster surface” value with algae (plaster) is “exhibited an improvement”. Also, the “MEAN FUNGAL GROWTH RATING - PLASTER SUBSTRATE 28 days leached” value in the series on fungi [2] (constant running water for 72 hours, 28 days, mean of ratings 0-5) is on record as 3 (3=growth on 10-30% of test face). In addition, the “MEAN FUNGAL GROWTH RATING - PLASTER SUBSTRATE 56 days leached” value in the series on fungi [2] (constant running water for 72 hours, 56 days, mean of ratings 0-5) worked out at 3.5. In addition, in the series on fungi [2] (leached 72 hours, versus unpreserved paint), the “% Improved After 56 days leached (fungal, plaster)” value stood at 0%. Also, the “MEAN FUNGAL GROWTH RATING - PLASTER SUBSTRATE 28 days as applied” value with fungi [2] (no leaching with water, 28 days, mean of ratings 0-5) came to 4.5. Besides, in the series with fungi [2] (no leaching with water, 56 days, mean of ratings 0-5), the “MEAN FUNGAL GROWTH RATING - PLASTER SUBSTRATE 56 days as applied” value was 5 (5=growth on 70-100% of test face). In the series with fungi [2] (no leaching, versus unpreserved paint), the “% Improved After 56 days as applied (fungal, plaster)” value came out at 0%. The “Improvement against fungal growth on the wood surface” value with fungi [3] is “only showed marginal improvement”. Moreover, in series [1], the “Aq. Solubility (ppm)” value is on record as 0.004 ppm.

For `O=C(O)COc1ccc(Cl)cc1Cl` [2,4-D, 2,4-Dichlorphenoxy acetic acid], the figures for the ML rating in the series with Micrococcus luteus (500 ppm a.i.) and in the series on Micrococcus luteus (1000 ppm a.i.) were 2 and 5, respectively. In addition, the SA rating in the series with Staphylococcus aureus (500 ppm a.i.) and in the series on Staphylococcus aureus (1000 ppm a.i.) was 3 in each case. The figures for the EC rating with Escherichia coli (500 ppm a.i.) and in the series on Escherichia coli (1000 ppm a.i.) were 0 and 3, respectively. In addition, the PA rating is given as 0 with Pseudomonas aeruginosa (500 ppm a.i.) and 3 with Pseudomonas aeruginosa (1000 ppm a.i.). The CF rating is on record as 0 in the series on Citrobacter freundii (500 ppm a.i.) and 5 in the series on Citrobacter freundii (1000 ppm a.i.). Further, the PM rating turned out to be 1 in the series on Proteus mirabilis (500 ppm a.i.) and 2 in the series on Proteus mirabilis (1000 ppm a.i.). The “Bacteria Mean Score” value in the series on Bacteria (500 ppm a.i.) came out at 1.0; in the series on Bacteria (1000 ppm a.i.), 3.5. Moreover, the CA rating with Candida albicans (500 ppm a.i.) and in the series with Candida albicans (1000 ppm a.i.) was 5 throughout. The SC rating worked out at 1 in the series on Saccharomyces cerevisiae (500 ppm a.i.) and 3 in the series on Saccharomyces cerevisiae (1000 ppm a.i.). The AN rating with Aspergillus niger (500 ppm a.i.) is given as 0; with Aspergillus niger (1000 ppm a.i.), 5. In addition, the PF rating was 3 with Penicillium funiculosum (500 ppm a.i.) and 5 in the series on Penicillium funiculosum (1000 ppm a.i.). The AA rating with Alternaria alternata (500 ppm a.i.) and in the series with Alternaria alternata (1000 ppm a.i.) was 5 in each case. Further, the entries for the “Fungi Mean Score” value with Fungi [4] (500 ppm a.i.) and in the series with Fungi [4] (1000 ppm a.i.) were 2.8 and 4.6, respectively. Moreover, the “Aq. Solubility (ppm)” value in series [1] came out at 600 ppm.
